# Source: US20250093329A1, “SCREENING OF COMPOUNDS” (THE UNIVERSITY OF TULSA, priority 2022, published 2025)
# Experiments:
# Format in all cases: cell-based
# [1] = system: ovarian cancer cell line HeLa; assay: Rapid one hour CellTiter-Glo ATP screening in L15 (FIG. 28); details: for effectiveness by POC (FIG. 28): L15 media, one hour CTG, at least one concentration level
# Source text: [The source words this procedure for another cell line and reports this cell line under the same test.] (§1) When used to identify compounds for specific patients, the following steps will be carried out: • Individualized patient cells will be acquired from a tumor biopsy and cultured/grown in patient blood serum and/or plasma. (In most instances the cells will be obtained using a needle biopsy; i.e. fine needle aspiration biopsy. Optionally, the cells may be obtained from resected tumor (i.e. excisional biopsy, which is an attempt at complete tumor removal), and/or a core biopsy; (i.e. removal of part of the tumor). Alternatively, cells may be obtained from blood draw samples, which would contain leukemia, lymphoma and myeloma cells.) • The cells (as few as 100 cells per experiment) will be screened directly in patient blood serum and/or plasma in the absence or presence of glycolysis inhibitor, 2-deoxyglucose (2DG) using a rapid (1-2 hr) screening assay (CellTiter-Glo, or “CTG”). • NOTE: while the discussion herein focuses on CTG, other assays suitable for measuring changes in ATP levels will perform equally as well. […] DMEM contains glucose, but L15 has substituted glucose with galactose. This means that in DMEM, 2DG is added to inhibit glycolysis; but in L15, the addition of 2DG is unnecessary to achieve the same result as the lack of glucose in L15 precludes access to the metabolic pathway that would utilize glucose. […] The compounds identified with compound numbers 140-161 as depicted in FIGS. 11 and 12 were tested in this manner. NOTE: compound number 141 is Gramicidin, also known as Gramicidin D. This antibiotic is identified by CAS number 1393-88-0. • The rapid screening assay provides evidence of unexpected drug activity for known drugs against cancer cell lines. Thus, the screening of FDA-approved drugs for synergistic activity with metabolic inhibitors can provide anticancer drugs from drugs currently used for other purposes.
# (§2) The data presented in FIGS. 16-33 was developed using compounds 140-161 as depicted in FIGS. 11 and 12. […]
# [2] = system: A549, NCI H196 and MCF10A; assay: Comparison of effectiveness between cell lines (FIG. 27); details: 50 μM to 200 μM, L15, one hour CTG
# Protocol: FIG. 27 provides a comparison of the effectiveness of the compounds against A549, NCI H196 and MCF10A at concentrations in the range of 50 μM to 200 μM.
# [3] = system: pancreatic cancer cell line CFPAC-1; assay: Rapid one hour CellTiter-Glo ATP screening in L15 (FIG. 31)
# Source text: [The source words this procedure for another cell line and reports this cell line under the same test.] (§3) When used to identify compounds for specific patients, the following steps will be carried out: • Individualized patient cells will be acquired from a tumor biopsy and cultured/grown in patient blood serum and/or plasma. (In most instances the cells will be obtained using a needle biopsy; i.e. fine needle aspiration biopsy. Optionally, the cells may be obtained from resected tumor (i.e. excisional biopsy, which is an attempt at complete tumor removal), and/or a core biopsy; (i.e. removal of part of the tumor). Alternatively, cells may be obtained from blood draw samples, which would contain leukemia, lymphoma and myeloma cells.) • The cells (as few as 100 cells per experiment) will be screened directly in patient blood serum and/or plasma in the absence or presence of glycolysis inhibitor, 2-deoxyglucose (2DG) using a rapid (1-2 hr) screening assay (CellTiter-Glo, or “CTG”). • NOTE: while the discussion herein focuses on CTG, other assays suitable for measuring changes in ATP levels will perform equally as well. […] DMEM contains glucose, but L15 has substituted glucose with galactose. This means that in DMEM, 2DG is added to inhibit glycolysis; but in L15, the addition of 2DG is unnecessary to achieve the same result as the lack of glucose in L15 precludes access to the metabolic pathway that would utilize glucose. […]
# MCF7 and MCF10A = assay: Comparison of cancerous and non-cancerous cells (FIG. 33); details: 10 μM to 30 μM
# Protocol: FIG. 33 compares the impact of compounds 140-161 on breast cancer cell line MCF7 and non-cancerous […] cells MCF10A. All compounds tested were in the range of 10 μM to 30 μM.
# [4] = Rapid one hour CellTiter-Glo ATP screening in L15 (FIG. 26); details: MCF10A; L15 media; one hour CTG; at least one concentration level
# [5] = system: breast cancer cell line MCF7; assay: Rapid one hour CellTiter-Glo ATP screening in L15 (FIG. 29); details: for effectiveness by POC (FIG. 29): L15 media, one hour CTG, at least one concentration level
# Source text: [The source words this procedure for another cell line and reports this cell line under the same test.] as §1, §2
# lung cancer cells A549 = assay: Rapid one hour CellTiter-Glo ATP screening (FIGS. 16-18, 21-24); details: for effectiveness by POC (FIG. 17): 10-30 μM; for effectiveness by POC (FIG. 24): L15 media
# Source text: as §1
# The data presented in FIGS. 16-33 was developed using compounds 140-161 as depicted in FIGS. 11 and 12. The graphs of FIGS. 16-33 provide a direct comparison of the rapid screening method wherein the tests were carried out over one hour (CTG) using Dulbecco's Modified Eagle Medium (DMEM), […] 2DG and L15 media (described below), a cell media that is missing glucose; the equivalent to DMEM plus 2DG. Compounds 140-161 were screened against lung cancer cells designated A549. Similar results are obtained in most cases, but a few examples show significant enhancement of activity in L15. As used in the discussion below, Rot=rotenone, and 2DG+Rot=a positive control (ATP should be inhibited to a high degree).
# FIG. 16 provides a comparison of DMEM and L15 media at 50-200 μM. After one hour of exposure and assessment of the ATP values using CellTiter-Glo assay, the “percent of control” (POC) value is determined with respect to the DMSO control. As reflected by FIG. 16, the following compounds, at the indicated concentrations, would be considered effective against the cancer cells of line A549: 140, 142, 149, 150, 155, 156, 159, 160, 161. The same compounds were tested at 10-30 μM with the results depicted in FIG. 17. At these concentrations, the following compounds would be considered effective at least one concentration level: 141, 155, 156, 159, 160.
# FIG. 18 provides a comparison of DMEM with 10 mM 2DG with the compounds of interest at concentrations of 50 to 200 μM and 10 to 30 μM to L15 Media with the compounds of interest at concentrations of 50 to 200 μM and 10 to 30 μM. The compounds were tested against the same cancer cell line with one hour of exposure and CTG assay with POC reported against a DMSO control. Under the reported conditions the following compounds would be considered to have effectiveness in treating the cancer cell line at least one concentration level: 140, 141, 149, 155, 156, 159, 160, 161.
# FIGS. 21 and 22 provide test data developed using the rapid testing method described above. […]
# [6] = system: pancreatic cancer cell line SW-1990; assay: Rapid one hour CellTiter-Glo ATP screening in L15 (FIG. 30); details: for effectiveness by POC (FIG. 30): L15 media, one hour CTG, at least one concentration level
# Source text: [The source words this procedure for another cell line and reports this cell line under the same test.] as §1, §2
# [7] = system: lung cancer cell line NCI H196; assay: Rapid one hour CellTiter-Glo ATP screening in L15 (FIG. 25); details: L15 media, one hour CTG, at least one concentration level
# Source text: [The source words this procedure for another cell line and reports this cell line under the same test.] as §3
# [8] = DMEM and L15 media, one hour, at least one concentration level
# [9] = 1-8 μm, 10-30 μM and 50-200 μM, one hour CTG, at least one concentration level
Compound,"effectiveness against ovarian cancer (FIG. 28) ([1]; 145 μM, L15)",effectiveness by POC (FIG. 28) [1],subtype specificity (FIG. 27) [2],"effectiveness against pancreatic cancer (FIG. 31) ([3]; 145 μM, L15)","effectiveness by POC (FIG. 31) ([3]; L15 media, one hour CTG, at least one concentration level)",impact on cancerous versus non-cancerous cells (FIG. 33) (MCF7 and MCF10A),effectiveness by POC (FIG. 26) [4],"effectiveness against breast cancer (FIG. 29) ([5]; 145 μM, L15)",effectiveness by POC (FIG. 29) [5],effectiveness (FIG. 23) (lung cancer cells A549; 145 μM in L15),effectiveness by POC (FIG. 17) (lung cancer cells A549; [8]),"effectiveness by POC (FIG. 16) (lung cancer cells A549; DMEM and L15 media, 50-200 μM, one hour, CellTiter-Glo, DMSO control)","effectiveness by POC when combined with 2DG (FIG. 22) (lung cancer cells A549; DMEM with 10 mM 2DG, 1-8 μm, 10-30 μM and 50-200 μM, one hour CTG, at least one concentration level)",effectiveness by POC (FIG. 24) (lung cancer cells A549; [9]),"effectiveness against pancreatic cancer (FIG. 30) ([6]; 145 μM, L15)",effectiveness by POC (FIG. 30) [6],effectiveness by POC (FIG. 25) [7]
"CN(C)CCCOc1nn(Cc2ccccc2)c2ccccc12 [Compound 156, benzydamine]",effective,likely effective,subtype specificity,effective,likely effective,significantly more impact on the cancerous cells,likely effective,effective,likely effective,unexpected effectiveness,effective,effective,effective,likely to be effective,effective,likely effective,–
Gramicidin [Compound 141],–,likely effective,subtype specificity,–,–,–,likely effective,–,likely effective,–,effective,–,–,likely to be effective,–,likely effective,likely effective
